Source: patent publication US11219625B2, “Inhibitors of N-linked glycosylation and methods using same” (YALE UNIVERSITY, priority 2015, dated 2022)

Tests used:
Type in all cases: cell-based
[1] = tested on: OST; assay: 35S metabolic labeling of pSAP and SHBG in Hela cells
Procedure: FIGS. 2A-2I illustrate the finding that NGI-1 blocks OST function. FIG. 2A illustrates the western blots of glycosylated luciferase (Luc) after treatment with 1 μM tunicmaycin (Tn) and 10 μM NGI-1 in CHO-Lec15 and CHO-Lec35 cells with stable expression of ER-LucT. FIG. 2B is a […] illustrating FACE analysis of lipid linked oligosaccharides (LLOs). FIG. 2C is a series of western blots illustrating the effects of NGI-1 (5 μM) on free oligosaccharides (left panel) and N-linked glycans cleaved from peptides with Peptide-N-Glycosidase F (right panel). Carbohydrate size is indicated with glucose markers (G4-G7). FIG. 2D is a western blot illustrating cell free inhibition of the OST using a rabbit reticulocyte lysate translation system supplemented with canine pancreas rough microsomes (cRM). Saposin-DDK-His6 mRNA was translated for 60 min in the presence of ^35S methionine and the indicated concentration of NGI-1 or Tn. […] FIG. 2E comprises a series of western blots illustrating results from NGI-1 compared to siRNA knockdown of STT3A or STT3B. Glycoforms are represented by 0-5n and 0-2n respectively and average number of glycans per sample is reported for each condition. NC=non-coding siRNA, EH=endoglycosidase H treated. […] FIGS. 2G-2H: Dose response and quantitation of NGI-1 effect on pSAP (squares) and SHBG glycosylation (circles). […]

[2] = tested on: A549 cells; assay: Cell cycle distribution by flow cytometry, A549; conditions: A549, NGI-1 24 h
Procedure: (§1) FIGS. 5A-5G illustrate NGI-1 induces G1 arrest and senescence in EGFR addicted tumor cells. FIG. 5A illustrates cell cycle distribution of PC9 cells after 24 h NGI-1 treatment for 24 h determined by flow cytometry. […] FIG. 5B illustrates cell cycle distribution of A549 cells after 24 h NGI-1 treatment for 24 h determined by flow cytometry. FIG. 5C illustrates western blot time course of cyclin D1 expression in PC9 and A549 cells after NGI-1 treatment. FIG. 5D illustrates quantitative real-time PCR analysis of PC9 and A549 cells. A time course of cyclin D1 expression levels relative to GAPDH is represented. […] FIG. 5F illustrates senescence of PC9 cells explored by: cell autofluorescence, measured by flow cytometry using a detector for PE/YFP; lipofuscin accumulation, detected by confocal laser scanning microscopy using an excitation laser of 405 nm with acquired signals from spectrums of yellow 575-620 nm; and morphology changes, enlarged vs. flattened. […] Significance was calculated using a T test (*p<0.05. **p<0.01). FIG. 5G illustrates senescence of A549 cells explored by: cell autofluorescence, measured by flow cytometry using a detector for PE/YFP; lipofuscin accumulation, detected by confocal laser scanning microscopy using an excitation laser of 405 nm with acquired signals from spectrums of yellow 575-620 nm; and morphology changes, enlarged vs. flattened. […]

[3] = tested on: PC9 cells; assay: Cell cycle distribution by flow cytometry, PC9; conditions: PC9, NGI-1 24 h; control 65%; p<0.01
Procedure: as §1

## Cc1cnc(NC(=O)c2cc(S(=O)(=O)N(C)C)ccc2N2CCCC2)s1 [NGI-1, 5-(N,N-Dimethylsulfamoyl)-N-(5-methylthiazol-2-yl)-2-(pyrrolidin-1-yl)benzamide]
[1]; 10 μM NGI-1, 24 h, compared to STT3A/STT3B knockdown
  glycosylation of pSAP and SHBG sites: reduced glycosylation of all sites on pSAP and SHBG
[1]; NGI-1 24 h prior to, during 20 min labeling, or both
  reversibility of OST inhibition: reversible OST inhibitor
[2]
  cell cycle distribution: did not significantly change the cell cycle distribution
[3]
  cells in G1: 90%
